From article PMC5146859, “Phase 1/2 study of pacritinib, a next generation JAK2/FLT3 inhibitor, in myelofibrosis or other myeloid malignancies” (Journal of Hematology & Oncology, 2016)
“Also recorded” adds a separate entry of the source.

Tested on: patients with advanced myeloid malignancies
Assay: Phase 1 safety: adverse events (NCIC-CTCAE version 3.0)
Type: in vivo, human
Experimental: At screening/baseline, patients underwent a medical history, physical examination, vital sign assessment, ECOG PS assessment, electrocardiogram, and assessment of hematologic parameters and blood chemistry. Hematology/blood chemistry, physical examinations, and vital sign assessments were performed throughout treatment. Toxicity was assessed using the National Cancer Institute Common Terminology Criteria for Adverse Events (NCIC-CTCAE), version 3.0, with relationship to treatment assigned by the investigator and were recorded from the first dose of pacritinib until 30 days after the last dose. Bone marrow biopsy and/or aspirate samples were drawn at baseline, on day 1 of cycle 4 and cycle 10, as clinically indicated, and at the termination visit. Disease response and progression were determined using the relevant International Working Group (IWG) criteria.
The efficacy-evaluable population included those patients with a baseline and corresponding follow-up value. The safety population included all enrolled patients who received ≥1 dose of pacritinib.

[1] = phase 1, 500 mg QD cohort of seven
[2] = phase 1, all patients n = 43, Grade 1/2
[3] = phase 1, all patients n = 43, Grade 3/4

C1=C/COCc2cc(ccc2OCCN2CCCC2)Nc2nccc(n2)-c2cccc(c2)COC/1 [pacritinib, 11-(2-pyrrolidin-1-yl-ethoxy)-14,19-dioxa-5,7,26-triaza-tetracyclo[19.3.1.1(2,6). 1(8,12)]heptacosa-1(25),2(26),3,5,8,10,12(27),16,21,23-decaene]
Treatment-emergent AE: Petechiae (phase 1, 400 mg, n = 6): 0 n (%) | Treatment-emergent AE: Pyrexia (phase 1, 400 mg, n = 6): 2 (33.3) n (%) | Treatment-emergent AE: Skin lesion (phase 1, 400 mg, n = 6): 0 n (%) | Treatment-emergent AE: Thrombocytopenia (phase 1, 400 mg, n = 6): 2 (33.3) n (%) | Treatment-emergent AE: Upper respiratory tract infection (phase 1, 400 mg, n = 6): 0 n (%) | Treatment-emergent AE: Vomiting (phase 1, 400 mg, n = 6): 3 (50.0) n (%) | Patients who discontinued treatment due to AEs [1]: two | Patients who experienced a serious AE [1]: three | Patients who required dose interruptions [1]: three | Patients who required dose reductions [1]: three | Treatment-emergent AE: Abdominal distension (phase 1, 500 mg, n = 7): 1 (14.3) n (%) | Treatment-emergent AE: Abdominal pain (phase 1, 500 mg, n = 7): 0 n (%) | Treatment-emergent AE: Anemia (phase 1, 500 mg, n = 7): 2 (28.6) n (%) | Treatment-emergent AE: Any AE (phase 1, 500 mg, n = 7): 7 (100.0) n (%) | Treatment-emergent AE: Asthenia (phase 1, 500 mg, n = 7): 1 (14.3) n (%) | Treatment-emergent AE: Back pain (phase 1, 500 mg, n = 7): 1 (14.3) n (%) | Treatment-emergent AE: Cardiac murmur (phase 1, 500 mg, n = 7): 1 (14.3) n (%) | Treatment-emergent AE: Chills (phase 1, 500 mg, n = 7): 1 (14.3) n (%) | Treatment-emergent AE: Constipation (phase 1, 500 mg, n = 7): 1 (14.3) n (%) | Treatment-emergent AE: Cough (phase 1, 500 mg, n = 7): 0 n (%) | Treatment-emergent AE: Decreased appetite (phase 1, 500 mg, n = 7): 0 n (%) | Treatment-emergent AE: Dehydration (phase 1, 500 mg, n = 7): 1 (14.3) n (%) | Treatment-emergent AE: Diarrhea (phase 1, 500 mg, n = 7): 7 (100.0) n (%) | Treatment-emergent AE: Dizziness (phase 1, 500 mg, n = 7): 1 (14.3) n (%) | Treatment-emergent AE: Dyspnea (phase 1, 500 mg, n = 7): 1 (14.3) n (%) | Treatment-emergent AE: Edema peripheral (phase 1, 500 mg, n = 7): 2 (28.6) n (%) | Treatment-emergent AE: Epistaxis (phase 1, 500 mg, n = 7): 0 n (%) | Treatment-emergent AE: Fatigue (phase 1, 500 mg, n = 7): 3 (42.9) n (%) | Treatment-emergent AE: Hyperbilirubinemia (phase 1, 500 mg, n = 7): 0 n (%) | Treatment-emergent AE: Hyperuricemia (phase 1, 500 mg, n = 7): 1 (14.3) n (%) | Treatment-emergent AE: Insomnia (phase 1, 500 mg, n = 7): 1 (14.3) n (%) | Treatment-emergent AE: Nausea (phase 1, 500 mg, n = 7): 5 (71.4) n (%) | Treatment-emergent AE: Neutropenia (phase 1, 500 mg, n = 7): 0 n (%) | Treatment-emergent AE: Night sweats (phase 1, 500 mg, n = 7): 1 (14.3) n (%) | Treatment-emergent AE: Pain in extremity (phase 1, 500 mg, n = 7): 0 n (%) | Treatment-emergent AE: Petechiae (phase 1, 500 mg, n = 7): 1 (14.3) n (%) | Treatment-emergent AE: Pyrexia (phase 1, 500 mg, n = 7): 2 (28.6) n (%) | Treatment-emergent AE: Skin lesion (phase 1, 500 mg, n = 7): 0 n (%) | Treatment-emergent AE: Thrombocytopenia (phase 1, 500 mg, n = 7): 1 (14.3) n (%) | Treatment-emergent AE: Upper respiratory tract infection (phase 1, 500 mg, n = 7): 0 n (%) | Treatment-emergent AE: Vomiting (phase 1, 500 mg, n = 7): 3 (42.9) n (%) | Treatment-emergent AE: Abdominal distension (phase 1, 600 mg, n = 6): 2 (33.3) n (%) | Treatment-emergent AE: Abdominal pain (phase 1, 600 mg, n = 6): 1 (16.7) n (%) | Treatment-emergent AE: Anemia (phase 1, 600 mg, n = 6): 3 (50.0) n (%) | Treatment-emergent AE: Any AE (phase 1, 600 mg, n = 6): 6 (100.0) n (%) | Treatment-emergent AE: Asthenia (phase 1, 600 mg, n = 6): 2 (33.3) n (%) | Treatment-emergent AE: Back pain (phase 1, 600 mg, n = 6): 0 n (%) | Treatment-emergent AE: Cardiac murmur (phase 1, 600 mg, n = 6): 2 (33.3) n (%) | Treatment-emergent AE: Chills (phase 1, 600 mg, n = 6): 1 (16.7) n (%) | Treatment-emergent AE: Constipation (phase 1, 600 mg, n = 6): 1 (16.7) n (%) | Treatment-emergent AE: Cough (phase 1, 600 mg, n = 6): 0 n (%) | Treatment-emergent AE: Decreased appetite (phase 1, 600 mg, n = 6): 1 (16.7) n (%) | Treatment-emergent AE: Dehydration (phase 1, 600 mg, n = 6): 1 (16.7) n (%) | Treatment-emergent AE: Diarrhea (phase 1, 600 mg, n = 6): 6 (100.0) n (%) | Treatment-emergent AE: Dizziness (phase 1, 600 mg, n = 6): 1 (16.7) n (%) | Treatment-emergent AE: Dyspnea (phase 1, 600 mg, n = 6): 3 (50.0) n (%) | Treatment-emergent AE: Edema peripheral (phase 1, 600 mg, n = 6): 3 (50.0) n (%) | Treatment-emergent AE: Epistaxis (phase 1, 600 mg, n = 6): 1 (16.7) n (%) | Treatment-emergent AE: Fatigue (phase 1, 600 mg, n = 6): 1 (16.7) n (%) | Treatment-emergent AE: Hyperbilirubinemia (phase 1, 600 mg, n = 6): 0 n (%) | Treatment-emergent AE: Hyperuricemia (phase 1, 600 mg, n = 6): 3 (50.0) n (%) | Treatment-emergent AE: Insomnia (phase 1, 600 mg, n = 6): 0 n (%) | Treatment-emergent AE: Nausea (phase 1, 600 mg, n = 6): 4 (66.7) n (%) | Treatment-emergent AE: Neutropenia (phase 1, 600 mg, n = 6): 0 n (%) | Treatment-emergent AE: Night sweats (phase 1, 600 mg, n = 6): 1 (16.7) n (%) | Treatment-emergent AE: Pain in extremity (phase 1, 600 mg, n = 6): 1 (16.7) n (%) | Treatment-emergent AE: Petechiae (phase 1, 600 mg, n = 6): 0 n (%) | Treatment-emergent AE: Pyrexia (phase 1, 600 mg, n = 6): 2 (33.3) n (%) | Treatment-emergent AE: Skin lesion (phase 1, 600 mg, n = 6): 0 n (%) | Treatment-emergent AE: Thrombocytopenia (phase 1, 600 mg, n = 6): 1 (16.7) n (%) | Treatment-emergent AE: Upper respiratory tract infection (phase 1, 600 mg, n = 6): 0 n (%) | Treatment-emergent AE: Vomiting (phase 1, 600 mg, n = 6): 3 (50.0) n (%) | Treatment-emergent AE: Abdominal distension [2]: 9 (20.9) n (%) | Treatment-emergent AE: Abdominal pain [2]: 6 (14.0) n (%) | Treatment-emergent AE: Anemia [2]: 3 (7.0) n (%) | Treatment-emergent AE: Any AE [2]: 8 (18.6) n (%) | Treatment-emergent AE: Asthenia [2]: 6 (14.0) n (%) | Treatment-emergent AE: Back pain [2]: 7 (16.3) n (%) | Treatment-emergent AE: Cardiac murmur [2]: 6 (14.0) n (%) | Treatment-emergent AE: Chills [2]: 5 (11.6) n (%) | Treatment-emergent AE: Constipation [2]: 11 (25.6) n (%) | Treatment-emergent AE: Cough [2]: 5 (11.6) n (%) | Treatment-emergent AE: Decreased appetite [2]: 8 (18.6) n (%) | Treatment-emergent AE: Dehydration [2]: 5 (11.6) n (%) | Treatment-emergent AE: Diarrhea [2]: 28 (65.1) n (%) | Treatment-emergent AE: Dizziness [2]: 6 (14.0) n (%) | Treatment-emergent AE: Dyspnea [2]: 9 (20.9) n (%) | Treatment-emergent AE: Edema peripheral [2]: 10 (23.3) n (%) | Treatment-emergent AE: Epistaxis [2]: 7 (16.3) n (%) | Treatment-emergent AE: Fatigue [2]: 9 (20.9) n (%) | Treatment-emergent AE: Hyperbilirubinemia [2]: 5 (11.6) n (%) | Treatment-emergent AE: Hyperuricemia [2]: 5 (11.6) n (%) | Treatment-emergent AE: Insomnia [2]: 7 (16.3) n (%) | Treatment-emergent AE: Nausea [2]: 19 (44.2) n (%) | Treatment-emergent AE: Neutropenia [2]: 2 (4.7) n (%) | Treatment-emergent AE: Night sweats [2]: 6 (14.0) n (%) | Treatment-emergent AE: Pain in extremity [2]: 5 (11.6) n (%) | Treatment-emergent AE: Petechiae [2]: 5 (11.6) n (%) | Treatment-emergent AE: Pyrexia [2]: 9 (20.9) n (%) | Treatment-emergent AE: Skin lesion [2]: 5 (11.6) n (%) | Treatment-emergent AE: Thrombocytopenia [2]: 2 (4.7) n (%) | Treatment-emergent AE: Upper respiratory tract infection [2]: 5 (11.6) n (%) | Treatment-emergent AE: Vomiting [2]: 16 (37.2) n (%) | Treatment-emergent AE: Abdominal distension [3]: 0 n (%) | Treatment-emergent AE: Abdominal pain [3]: 1 (2.3) n (%) | Treatment-emergent AE: Anemia [3]: 7 (16.3) n (%) | Treatment-emergent AE: Any AE [3]: 35 (81.4) n (%) | Treatment-emergent AE: Asthenia [3]: 2 (4.7) n (%) | Treatment-emergent AE: Back pain [3]: 0 n (%) | Treatment-emergent AE: Cardiac murmur [3]: 0 n (%) | Treatment-emergent AE: Chills [3]: 0 n (%) | Treatment-emergent AE: Constipation [3]: 0 n (%) | Treatment-emergent AE: Cough [3]: 0 n (%) | Treatment-emergent AE: Decreased appetite [3]: 0 n (%) | Treatment-emergent AE: Dehydration [3]: 0 n (%) | Treatment-emergent AE: Diarrhea [3]: 3 (7.0) n (%) | Treatment-emergent AE: Dizziness [3]: 0 n (%) | Treatment-emergent AE: Dyspnea [3]: 0 n (%) | Treatment-emergent AE: Edema peripheral [3]: 2 (4.7) n (%) | Treatment-emergent AE: Epistaxis [3]: 1 (2.3) n (%) | Treatment-emergent AE: Fatigue [3]: 4 (9.3) n (%) | Treatment-emergent AE: Hyperbilirubinemia [3]: 0 n (%) | Treatment-emergent AE: Hyperuricemia [3]: 1 (2.3) n (%) | Treatment-emergent AE: Insomnia [3]: 0 n (%) | Treatment-emergent AE: Nausea [3]: 0 n (%) | Treatment-emergent AE: Neutropenia [3]: 3 (7.0) n (%) | Treatment-emergent AE: Night sweats [3]: 0 n (%) | Treatment-emergent AE: Pain in extremity [3]: 0 n (%) | Treatment-emergent AE: Petechiae [3]: 0 n (%) | Treatment-emergent AE: Pyrexia [3]: 3 (7.0) n (%) | Treatment-emergent AE: Skin lesion [3]: 0 n (%) | Treatment-emergent AE: Thrombocytopenia [3]: 6 (14.0) n (%) | Treatment-emergent AE: Upper respiratory tract infection [3]: 0 n (%) | Treatment-emergent AE: Vomiting [3]: 0 n (%) | SAE Management/Outcome (phase 1, listing per patient and SAE): Fatal; also recorded: Dose not changed; recovered/resolved with sequelae; also recorded: Drug withdrawn; recovered/resolved with sequelae; also recorded: Drug interrupted; recovered/resolved with sequelae | Deaths attributed to AEs (phase 1, n = 43): Seven | Discontinuations because of an AE considered treatment related (phase 1, n = 43): three | Dose interruptions due to AEs (phase 1, n = 43): 18 patients | Dose reductions due to AEs (phase 1, n = 43): 9 patients | Grade 3/4 anemia (phase 1, n = 43): 16.3% | Grade 3/4 thrombocytopenia (phase 1, n = 43): 14.0% | Grade 3 treatment-related AEs (phase 1, n = 43): 20.9% | Grade 4 treatment-related AEs (phase 1, n = 43): 4.7% | Patients who died during study participation (phase 1, n = 43): 32.6% | Patients who discontinued pacritinib because of an AE (phase 1, n = 43): Eight | Patients with SAEs (phase 1, n = 43): 44.2% | Patients with SAEs considered treatment related (phase 1, n = 43): 9.3% | Treatment-related AE: diarrhea (phase 1, n = 43): 65.1% | Treatment-related AE: nausea (phase 1, n = 43): 34.9% | Treatment-related AE: thrombocytopenia (phase 1, n = 43): 11.6% | Treatment-related AE: vomiting (phase 1, n = 43): 23.3%
